Test results as given in paper PMC4284639, “The Escherichia coli effector EspJ blocks Src kinase activity via amidation and ADP ribosylation” (Nature Communications, 2014).

Biological target: T1, EspJ28-217 (Escherichia coli, UniProt B7ULW8)
T1 construct: gene E2348C_0723; residues 28-217, lacking N-terminal secretion signal; 15N-labelled for NMR
Test: 1H-15N HSQC NMR titration
Type: binding
Details: 0.25 mM 15N-labelled protein, 1 or 10 molar equivalents of NAD+; 50 mM NaPO4 pH 7.4, 200 mM NaCl, 5 mM beta-mercaptoethanol, 10% D2O, 295 K; also ADP-ribose donor with GST-Src (150 uM NAD+ and labelle)

T1 sequence (B7ULW8 entry or part of it): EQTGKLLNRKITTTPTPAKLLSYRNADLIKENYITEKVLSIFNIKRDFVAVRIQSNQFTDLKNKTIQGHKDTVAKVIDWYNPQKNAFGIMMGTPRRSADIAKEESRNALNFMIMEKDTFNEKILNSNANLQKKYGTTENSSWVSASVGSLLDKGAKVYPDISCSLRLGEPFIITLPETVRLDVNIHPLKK

`NC(=O)c1ccc[n+]([C@@H]2O[C@H](COP(=O)(O)OP(=O)(O)OC[C@H]3O[C@@H](n4cnc5c(N)ncnc54)[C@H](O)[C@@H]3O)[C@@H](O)[C@H]2O)c1` [NAD^+] was tested, and the chemical shift perturbation was “The addition of NAD^+ caused substantial chemical shift perturbations for several resonances”.
